Assay in all cases: c-ponatinib pulldown LC-MS/MS
Common to all, as to type: binding

Assay [1] deals with T1, MAPK12 (Homo sapiens, UniProt P53778).
T1 sequence (P53778 1-367): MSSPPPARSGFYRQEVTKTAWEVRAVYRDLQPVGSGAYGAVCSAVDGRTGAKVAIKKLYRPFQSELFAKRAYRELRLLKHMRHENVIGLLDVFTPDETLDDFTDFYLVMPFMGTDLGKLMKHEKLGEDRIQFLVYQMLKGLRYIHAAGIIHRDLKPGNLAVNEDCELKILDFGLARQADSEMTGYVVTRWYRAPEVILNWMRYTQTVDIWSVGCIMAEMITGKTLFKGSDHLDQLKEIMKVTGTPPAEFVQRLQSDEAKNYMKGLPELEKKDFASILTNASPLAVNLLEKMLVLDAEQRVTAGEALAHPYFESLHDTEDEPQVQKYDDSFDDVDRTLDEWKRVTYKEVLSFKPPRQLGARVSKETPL
As for the experimental part: (§1) Drug-affinity matrices were prepared as described previously.[51] In brief, 25 nmol of c-ponatinib were immobilized on 50 μl NHS-activated Sepharose 4 Fast Flow beads (GE Healthcare Bio-Sciences AB, Uppsala, Sweden). 10 mg whole cell lysate was used as protein input per replicate. Affinity chromatography and elution were performed in duplicate. After elution, the enriched proteins were reduced with dithiothreitol (DTT) and cysteine residues were alkylated by incubation with iodoacetamide. The samples were digested with modified porcine trypsin (Promega). Five percent of the digested eluates were purified and concentrated by C18 reversed-phase material. Subsequently, samples were analyzed in duplicates by gel-free one-dimensional LCMS.
(§2) Precursor and MS/MS peaks were extracted from the RAW files and saved in the MGF format using msconvert tool (ProteoWizard Library v2.1.2708, www.proteowizard.sourceforge.net) for subsequent protein identification. An initial database search was performed with broader mass tolerance and conservative score threshold to re-calibrate the mass lists for optimal final protein identification. For the initial protein database search, Mascot (www.matrixscience.com, v2.3.02) was used. Error tolerances on the precursor and fragment ions were ±10 p.p.m. and ±0.6 Da, respectively, and the database search limited to fully-tryptic peptides with maximum one missed cleavage, carbamidomethyl cysteine and methionine oxidation set as fixed and variable modifications, respectively. The Mascot peptide ion score threshold was set to 30, and at least three peptide identifications per protein were required. Searches were performed against the human UniProtKB/SwissProt database (www.uniprot.org release 2013.01) including all protein isoforms. The initial peptide identifications were used to deduce independent linear transformations for precursor and fragment masses that would minimize the mean square deviation of measured masses from theoretical. Re-calibrated mass list files were searched against the same human protein database by a combination of Mascot and Phenyx (GeneBio SA, Geneva, Switzerland; version 2.5.14) search engines using narrower mass tolerances (±4 p.p.m. and ±0.3 Da). One missed tryptic cleavage site was allowed. Carbamidomethyl cysteine was set as a fixed modification and oxidized methionine was set as a variable modification. To validate the proteins, Mascot and Phenyx output files were processed by internally developed parsers. Proteins with ≥2 unique peptides above a score T1, or with a single peptide above a score T2 were selected as unambiguous identifications. Additional peptides for these validated proteins with score >T3 were also accepted. For Mascot searches, the following thresholds were used: T1=14, T2=40 and T3=10; Phenyx thresholds were set to 4.2, 4.75 and 3.5, respectively (P-value<10^−3). The validated proteins retrieved by the two algorithms were merged, any spectral conflicts discarded and grouped according to shared peptides. A false discovery rate of <1% for protein identifications and <0.1% for peptides (including the ones exported with lower scores) was determined by applying the same procedure against a database of reversed protein sequences. […] In addition to Mascot protein scores that were proposed as an estimate of protein abundance by the original algorithm, the modified version also included Phenyx protein scores and spectral counts. The algorithm first estimated three measure-specific P-values for each putative interaction, and, in contrast to,[69] P-value calculation utilized the quantiles of the measurements rather than the original data. The Fisher's method was used to combine the three resulting P-values into a single P-value for drug–protein interaction specificity. We have also correlated interaction P-values with the magnitude of competition effect represented by the fold reduction of spectral counts on free compound competition. […]

Assay [2] deals with T2, IRAK4 (Homo sapiens, UniProt Q9NWZ3).
T2 sequence (Q9NWZ3 1-460): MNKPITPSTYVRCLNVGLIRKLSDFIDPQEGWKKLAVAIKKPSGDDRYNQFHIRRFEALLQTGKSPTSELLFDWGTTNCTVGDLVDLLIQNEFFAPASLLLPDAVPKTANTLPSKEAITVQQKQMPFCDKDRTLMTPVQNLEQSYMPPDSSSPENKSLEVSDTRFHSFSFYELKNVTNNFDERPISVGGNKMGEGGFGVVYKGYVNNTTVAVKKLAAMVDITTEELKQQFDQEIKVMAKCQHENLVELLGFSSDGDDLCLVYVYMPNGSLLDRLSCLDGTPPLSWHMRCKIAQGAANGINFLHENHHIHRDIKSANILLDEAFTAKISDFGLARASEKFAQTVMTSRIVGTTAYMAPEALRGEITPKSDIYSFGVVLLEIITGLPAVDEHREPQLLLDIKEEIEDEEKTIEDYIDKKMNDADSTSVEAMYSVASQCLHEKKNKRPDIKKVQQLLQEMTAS
As for the experimental part:
as §1, §2

For assay [3], the target named is CSK (Homo sapiens, UniProt P41240). The procedure: as §1, §2
Assay [4] addresses MAP4K4 (Homo sapiens, UniProt O95819). As for the experimental part: as §1, §2
The target of assay [5] is T3, YWHAE (Homo sapiens, UniProt P62258).
T3 sequence (P62258 1-255): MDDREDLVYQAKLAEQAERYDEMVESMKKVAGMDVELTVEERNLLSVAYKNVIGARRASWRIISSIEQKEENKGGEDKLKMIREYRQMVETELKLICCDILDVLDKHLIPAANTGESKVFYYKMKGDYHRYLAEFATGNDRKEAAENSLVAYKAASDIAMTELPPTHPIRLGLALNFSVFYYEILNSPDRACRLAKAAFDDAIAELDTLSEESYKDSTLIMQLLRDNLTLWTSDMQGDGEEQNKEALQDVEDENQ
As for the experimental part: as §1, §2

The target in assay [6] is MAP3K1 (Homo sapiens, UniProt Q13233). As for the experimental part:
as §1, §2

Chain of MAP4K4 (O95819 whole entry): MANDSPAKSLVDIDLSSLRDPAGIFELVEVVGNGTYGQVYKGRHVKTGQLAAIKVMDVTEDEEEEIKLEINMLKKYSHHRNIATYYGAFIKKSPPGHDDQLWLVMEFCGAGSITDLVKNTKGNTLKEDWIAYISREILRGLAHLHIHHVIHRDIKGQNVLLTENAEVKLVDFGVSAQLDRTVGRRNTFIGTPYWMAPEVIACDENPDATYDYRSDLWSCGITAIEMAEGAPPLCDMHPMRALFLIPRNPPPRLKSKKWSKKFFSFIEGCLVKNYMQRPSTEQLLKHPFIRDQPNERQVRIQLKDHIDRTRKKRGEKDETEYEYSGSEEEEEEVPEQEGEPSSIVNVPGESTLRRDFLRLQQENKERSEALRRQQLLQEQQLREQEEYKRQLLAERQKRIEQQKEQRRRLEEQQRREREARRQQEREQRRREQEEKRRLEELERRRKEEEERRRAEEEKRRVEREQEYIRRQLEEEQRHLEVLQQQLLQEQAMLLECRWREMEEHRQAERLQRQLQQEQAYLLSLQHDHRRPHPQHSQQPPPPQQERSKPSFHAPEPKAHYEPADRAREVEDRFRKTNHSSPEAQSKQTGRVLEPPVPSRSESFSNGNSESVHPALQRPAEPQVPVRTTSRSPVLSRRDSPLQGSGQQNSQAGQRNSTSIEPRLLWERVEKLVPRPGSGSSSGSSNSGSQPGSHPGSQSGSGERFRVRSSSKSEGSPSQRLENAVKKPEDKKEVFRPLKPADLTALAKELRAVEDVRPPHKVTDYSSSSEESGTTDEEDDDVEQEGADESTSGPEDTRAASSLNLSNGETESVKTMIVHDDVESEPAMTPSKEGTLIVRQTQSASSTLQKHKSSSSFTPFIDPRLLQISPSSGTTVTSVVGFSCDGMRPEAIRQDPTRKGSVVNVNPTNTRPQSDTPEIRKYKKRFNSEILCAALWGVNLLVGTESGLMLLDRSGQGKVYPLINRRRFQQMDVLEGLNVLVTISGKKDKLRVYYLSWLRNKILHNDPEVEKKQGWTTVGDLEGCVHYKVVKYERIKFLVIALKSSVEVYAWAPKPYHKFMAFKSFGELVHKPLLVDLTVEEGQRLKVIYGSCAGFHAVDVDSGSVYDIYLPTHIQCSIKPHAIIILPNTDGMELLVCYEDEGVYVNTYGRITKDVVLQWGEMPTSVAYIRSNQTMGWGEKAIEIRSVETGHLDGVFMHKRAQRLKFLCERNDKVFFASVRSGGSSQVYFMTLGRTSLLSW
Chain of CSK (P41240 whole entry): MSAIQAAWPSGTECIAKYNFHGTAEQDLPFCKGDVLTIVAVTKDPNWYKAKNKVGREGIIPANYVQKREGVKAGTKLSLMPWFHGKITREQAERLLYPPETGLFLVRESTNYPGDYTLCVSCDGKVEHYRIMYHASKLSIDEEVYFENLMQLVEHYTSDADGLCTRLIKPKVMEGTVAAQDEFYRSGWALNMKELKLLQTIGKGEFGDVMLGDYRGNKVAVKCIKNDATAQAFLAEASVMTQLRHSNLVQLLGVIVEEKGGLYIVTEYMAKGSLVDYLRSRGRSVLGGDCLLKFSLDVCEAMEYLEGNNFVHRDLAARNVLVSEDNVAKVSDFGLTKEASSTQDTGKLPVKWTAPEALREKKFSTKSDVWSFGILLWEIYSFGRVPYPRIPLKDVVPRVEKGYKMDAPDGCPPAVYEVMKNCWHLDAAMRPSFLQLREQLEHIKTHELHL
Chain of MAP3K1 (Q13233 whole entry): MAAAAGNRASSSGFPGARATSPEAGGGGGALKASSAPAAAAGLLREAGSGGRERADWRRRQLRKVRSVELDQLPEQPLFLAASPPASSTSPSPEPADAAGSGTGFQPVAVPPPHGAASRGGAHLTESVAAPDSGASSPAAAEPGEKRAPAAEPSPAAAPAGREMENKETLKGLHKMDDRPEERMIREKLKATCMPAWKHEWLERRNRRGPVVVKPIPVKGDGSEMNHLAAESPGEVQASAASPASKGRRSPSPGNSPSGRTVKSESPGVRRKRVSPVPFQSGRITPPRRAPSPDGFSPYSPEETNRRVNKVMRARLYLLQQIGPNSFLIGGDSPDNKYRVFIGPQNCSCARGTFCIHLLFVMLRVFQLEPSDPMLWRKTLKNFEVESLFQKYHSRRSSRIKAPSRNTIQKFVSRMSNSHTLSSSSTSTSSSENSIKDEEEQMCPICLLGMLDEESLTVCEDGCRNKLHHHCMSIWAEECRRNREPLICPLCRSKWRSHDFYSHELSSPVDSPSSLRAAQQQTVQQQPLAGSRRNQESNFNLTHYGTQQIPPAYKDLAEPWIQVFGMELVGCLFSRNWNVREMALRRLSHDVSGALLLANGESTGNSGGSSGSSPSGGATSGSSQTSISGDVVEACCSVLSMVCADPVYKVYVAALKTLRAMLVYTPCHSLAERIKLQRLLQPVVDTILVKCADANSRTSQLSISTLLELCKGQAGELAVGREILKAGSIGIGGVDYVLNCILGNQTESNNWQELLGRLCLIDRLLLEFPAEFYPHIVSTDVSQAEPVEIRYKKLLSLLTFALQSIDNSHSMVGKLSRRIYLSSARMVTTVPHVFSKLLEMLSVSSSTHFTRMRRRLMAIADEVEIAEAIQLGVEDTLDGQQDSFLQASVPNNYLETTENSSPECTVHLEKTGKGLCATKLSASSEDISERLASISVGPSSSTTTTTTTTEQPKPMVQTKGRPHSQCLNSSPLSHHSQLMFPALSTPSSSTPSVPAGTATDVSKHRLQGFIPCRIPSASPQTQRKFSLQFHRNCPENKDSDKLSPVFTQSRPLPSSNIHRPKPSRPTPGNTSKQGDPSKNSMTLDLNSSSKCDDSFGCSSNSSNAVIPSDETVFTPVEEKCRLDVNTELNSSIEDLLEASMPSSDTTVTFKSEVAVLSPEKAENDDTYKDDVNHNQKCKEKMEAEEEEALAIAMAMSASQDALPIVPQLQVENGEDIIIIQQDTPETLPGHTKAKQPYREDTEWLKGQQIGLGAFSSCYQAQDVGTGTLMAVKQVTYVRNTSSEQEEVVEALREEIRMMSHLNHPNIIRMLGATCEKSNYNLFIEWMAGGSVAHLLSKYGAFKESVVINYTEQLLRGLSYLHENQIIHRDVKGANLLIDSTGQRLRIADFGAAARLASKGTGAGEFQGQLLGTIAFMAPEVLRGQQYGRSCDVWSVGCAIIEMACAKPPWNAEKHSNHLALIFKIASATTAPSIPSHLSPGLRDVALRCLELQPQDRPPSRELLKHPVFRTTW

For the compound `Cc1ccc(C(=O)Nc2ccc(CN3CCN(CCCN)CC3)c(C(F)(F)F)c2)cc1C#Cc1cnc2cccnn12` [c-ponatinib], the “Av. SC comp.” value amounted to 3.75 in assay [1] (+ free ponatinib); 2.5 in assay [2] (+ free ponatinib); 4.5 in assay [3] (+ free ponatinib); 10.75 in assay [4] (+ free ponatinib); 1 in assay [5] (+ free ponatinib); 0 in assay [6] (+ free ponatinib). The “Total SC comp.” value is given as 15 in assay [1] (+ free ponatinib); 10 in assay [2] (+ free ponatinib); 18 in assay [3] (+ free ponatinib); 43 in assay [4] (+ free ponatinib); 4 in assay [5] (+ free ponatinib); 0 in assay [6] (+ free ponatinib). Further, the “Av. SC” value in assay [1] (no competitor) came to 10.75; in assay [2] (no competitor) it was 8.5; in assay [3] (no competitor), 52.25; in assay [4] (no competitor), 54.5; in assay [5] (no competitor) it was 13; in assay [6] (no competitor) it was 9. Moreover, the “Total SC” value in assay [1] (no competitor) came to 43; in assay [2] (no competitor) it was 34; in assay [3] (no competitor), 209; in assay [4] (no competitor), 218; in assay [5] (no competitor) it was 52; in assay [6] (no competitor), 36.
